Marks after values point to notes of the source that are not given here.
Key:
[1] = Predicted metabolic stability, mouse hepatic microsomes; type: in vitro ADME; settings: 10^−7 M, mouse hepatic microsomes 0.33 mg of prot/ml, NADPH
Method: (§1) The predicted metabolic stability is tested by incubation of the compounds at a concentration of 10^−7M in the presence of mouse, rat or human hepatic microsomes (0.33 mg of prot/ml). After addition of NADPH (nicotinamide adenine dinucleotide phosphate, reduced form), samples are taken at 0, 5, 15, 30 and 60 minutes. The enzymatic reaction is stopped using methanol (V/V). The protein is precipitated by centrifugation and the supernatant is analysed by LC-MS-MS.

[2] = molecular target: 5HT receptors (type 5HT2A) (Homo sapiens, UniProt P28223); experiment: Affinity for receptors, displacement of labelled specific ligand: 5HT2A; type: binding; settings: for inhibition at 10 µM: concentration 10^−5 M; for inhibition at 0.1 µM: concentration 10^−7 M
Sequence of 5HT receptors (type 5HT2A) (P28223 whole entry): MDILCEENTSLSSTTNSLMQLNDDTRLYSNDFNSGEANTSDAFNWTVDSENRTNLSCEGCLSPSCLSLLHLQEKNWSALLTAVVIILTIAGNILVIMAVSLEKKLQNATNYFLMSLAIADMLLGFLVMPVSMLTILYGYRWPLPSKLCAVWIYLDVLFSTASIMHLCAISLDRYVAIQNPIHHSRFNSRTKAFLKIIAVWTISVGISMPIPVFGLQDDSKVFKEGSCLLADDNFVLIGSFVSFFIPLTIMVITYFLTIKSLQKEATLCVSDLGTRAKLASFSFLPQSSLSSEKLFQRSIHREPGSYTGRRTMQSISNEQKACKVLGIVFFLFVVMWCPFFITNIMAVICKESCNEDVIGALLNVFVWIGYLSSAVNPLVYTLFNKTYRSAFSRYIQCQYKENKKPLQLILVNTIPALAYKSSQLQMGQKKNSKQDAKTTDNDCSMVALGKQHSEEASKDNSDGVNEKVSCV

[3] = molecular target: dopaminergic receptors (type D2) (Homo sapiens, UniProt P14416); experiment: Affinity for receptors, displacement of labelled specific ligand: D2; type: binding; settings: for inhibition at 10 µM: concentration 10^−5 M; for inhibition at 0.1 µM: concentration 10^−7 M
Sequence of dopaminergic receptors (type D2) (P14416 whole entry): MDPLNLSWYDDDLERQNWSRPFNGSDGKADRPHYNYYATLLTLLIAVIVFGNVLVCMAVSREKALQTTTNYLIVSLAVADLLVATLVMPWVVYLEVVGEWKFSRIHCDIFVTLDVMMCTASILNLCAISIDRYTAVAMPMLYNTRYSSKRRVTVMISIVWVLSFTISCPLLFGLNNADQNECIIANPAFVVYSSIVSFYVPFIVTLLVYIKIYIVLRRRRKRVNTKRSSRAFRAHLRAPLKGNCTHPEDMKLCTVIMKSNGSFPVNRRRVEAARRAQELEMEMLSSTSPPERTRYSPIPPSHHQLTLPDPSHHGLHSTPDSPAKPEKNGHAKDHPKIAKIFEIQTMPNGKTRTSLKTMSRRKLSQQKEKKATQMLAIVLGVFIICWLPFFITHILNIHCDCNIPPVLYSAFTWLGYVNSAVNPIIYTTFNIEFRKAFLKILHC

[4] = test system: confluent endothelial cells from bovine capillaries; experiment: Predicted crossing of the blood-brain barrier (BBB); type: in vitro ADME; parameters: key: high; intermediate; low; settings: 20 μM in upper compartment, filter with bovine capillary endothelial cells, 10-60 minutes, LC-MS-MS
Method: The substances are incubated at 20 μM in the upper compartment of a double container, the upper compartment being separated from the lower compartment either solely by a polycarbonate filter or by the same filter covered with confluent endothelial cells from bovine capillaries. Evaluation of the permeability kinetics is carried out by means of LC-MS-MS quantification of the unchanged substance in the lower compartment after 10, 20, 30, 40 and 60 minutes.
The results are given in the form of the categories: high, intermediate, low.

[5] = molecular target: dopaminergic receptors (type D1) (Homo sapiens, UniProt P21728); experiment: Affinity for receptors, displacement of labelled specific ligand: D1; type: binding; settings: for inhibition at 10 µM: concentration 10^−5 M; for inhibition at 0.1 µM: concentration 10^−7 M
Sequence of dopaminergic receptors (type D1) (P21728 whole entry): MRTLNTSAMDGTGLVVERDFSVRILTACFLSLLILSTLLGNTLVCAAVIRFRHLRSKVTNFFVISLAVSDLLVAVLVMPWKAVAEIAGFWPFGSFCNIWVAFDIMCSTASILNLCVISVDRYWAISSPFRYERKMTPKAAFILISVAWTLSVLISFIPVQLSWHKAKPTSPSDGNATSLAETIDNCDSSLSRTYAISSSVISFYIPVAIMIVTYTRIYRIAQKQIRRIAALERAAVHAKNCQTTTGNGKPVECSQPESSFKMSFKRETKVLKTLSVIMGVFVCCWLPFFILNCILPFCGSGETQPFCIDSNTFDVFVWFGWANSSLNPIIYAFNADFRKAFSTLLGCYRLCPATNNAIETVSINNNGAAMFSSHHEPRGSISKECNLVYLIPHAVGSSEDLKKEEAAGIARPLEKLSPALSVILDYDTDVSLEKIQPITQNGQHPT

[6] = Predicted metabolic stability, human hepatic microsomes; type: in vitro ADME; settings: 10^−7 M, human hepatic microsomes 0.33 mg of prot/ml, NADPH
Method: as §1

[7] = test system: sigma (σ) receptors (ligand: haloperidol); experiment: Affinity for receptors, displacement of labelled specific ligand: sigma; type: binding; settings: concentration 10^−5 M
Method: (§2) The affinity for receptors is determined according to customary methods of relations between the specific ligand and the receptor, which may be of animal origin or a human recombinant. The affinity was determined by the method of displacement of the labelled specific ligand by the compound under test and expressed by the dissociation constant KI. The receptor affinity was accordingly studied for 28 conventional receptors.

[8] = test system: muscarinic (M) receptors; experiment: Affinity for receptors, displacement of labelled specific ligand: muscarinic; type: binding
Method: as §2

[9] = test system: tyrosine hydroxylase (TH) protein; experiment: Induction of tyrosine hydroxylase (TH) in LC, SN and VTA of the mouse brain; type: in vivo, Balb/C mouse; settings: for amount of TH in LC section 1: LC section 1 (posterior-to-anterior); for amount of TH in LC section 1 / amount of TH, LC, total: i.p. 20 mg/kg; for amount of TH in LC section 1 / amount of TH in LC section 2 / amount of TH in LC section 3 / amount of TH in LC section 4 / amount of TH in LC section 5 / amount of TH in LC section 6 / amount of TH in LC section 7 / amount of TH in LC section 8 / amount of TH in LC section 9 / amount of TH in LC section 10 / amount of TH in LC section 11 / amount of TH, LC, total: three days after single injection; for amount of TH in LC section 2: LC section 2, i.p. 20 mg/kg; for amount of TH in LC section 3: LC section 3, i.p. 20 mg/kg; for amount of TH in LC section 4: LC section 4, i.p. 20 mg/kg; for amount of TH in LC section 5: LC section 5, i.p. 20 mg/kg; for amount of TH in LC section 6: LC section 6, i.p. 20 mg/kg; for amount of TH in LC section 7: LC section 7, i.p. 20 mg/kg; for amount of TH in LC section 8: LC section 8, i.p. 20 mg/kg; for amount of TH in LC section 9: LC section 9, i.p. 20 mg/kg; for amount of TH in LC section 10: LC section 10, i.p. 20 mg/kg; for amount of TH in LC section 11: LC section 11, i.p. 20 mg/kg
Source text: A search is made among the compounds for those which are capable of bringing about an increase in the tyrosine hydroxylase (TH) protein in the locus coeruleus (LC), substantia nigra (SN) and ventral tegmental area (VTA) of the brain of the Balb/C mouse. The animals used are consanguinal male mice of the pure Balb/C strain (Charles River Laboratories) aged 6 weeks at the time of treatment.
The mice are given a single injection, by the intraperitoneal route, of the compound under test, dissolved in 0.04M HCl solution (corresponding control: 0.04M HCl), if the compound is sufficiently soluble, or in olive oil 90%/DMSO 10% (corresponding control: olive oil 90%/DMSO 10%) for compounds that are insoluble in an aqueous medium. The volume injected is 100 μl. The test groups comprise 10 animals.
Three days after the injection of each compound, all the animals are sacrificed by decapitation. The brains are removed and then frozen in an isopentane solution at −30° C. for 45 seconds and subsequently stored at −80° C.
Serial coronal sections 20 microns thick are then taken using a cryomicrotome. Each structure of interest is then sampled along the posterior-anterior axis of the brain by taking sections at 80-micron spacings in the case of the LC and at 80- or 160-micron spacings in the case of the VTA and SN. The limits of those structures are those described in the atlas of Franklin and Paxinos. The total proteins of each of those sections are transferred by direct collection of the sections to a nitrocellulose filter (Millipore). The amounts of TH present in each sample are measured by immunochemistry, fluorimetric detection and image analysis.

[10] = Predicted metabolic stability, rat hepatic microsomes; type: in vitro ADME; settings: 10^−7 M, rat hepatic microsomes 0.33 mg of prot/ml, NADPH
Method: as §1

[11] = relative to mean value of control group

Row | SMILES | % metabolic stability predicted using hepatic microsomes, Mouse [1] [%] | inhibition at 10 µM [2] [%] | inhibition at 0.1 µM [2] [%] | inhibition at 10 µM [3] [%] | inhibition at 0.1 µM [3] [%] | inhibition at 10 µM [5] [%] | inhibition at 0.1 µM [5] [%] | % metabolic stability predicted using hepatic microsomes, Human [6] [%] | % inhibition σ [7] [%] | % inhibition M ([8]; concentration 10^−5 M) [%] | amount of TH in LC section 1 [9, 11] | amount of TH in LC section 2 [9, 11] | amount of TH in LC section 3 [9, 11] | amount of TH in LC section 4 [9, 11] | amount of TH in LC section 5 [9, 11] | amount of TH in LC section 6 [9, 11] | amount of TH in LC section 7 [9, 11] | amount of TH in LC section 8 [9, 11] | amount of TH in LC section 9 [9, 11] | amount of TH in LC section 10 [9, 11] [%] | other results
1 | CN1CCC=C(C(=O)Nn2ccc3ccccc32)C1 [Example 1, N-(1H-indol-1-yl)-1-methyl-1,2,5,6-tetrahydropyridine-3-carboxamide] | 40 | < 10 | < 10 | < 10 | < 10 | < 10 | < 10 | 70 | 44 | 23 | 57% | 72% | 128% | 128% | 158* % | 152* % | 131% | 107% | 106% | 95 | degree of crossing of the BBB (category) [4]: high; amount of TH in LC section 11 [9, 11]: 55%; amount of TH, LC, total [9, 11]: 121%; TH induction in the SN, in words ([9]; SN): markedly induces TH; TH induction in the VTA, in words ([9]; VTA): markedly induces TH; TH induction in the medial LC (sections 4, 5 and 6), in words ([9]; medial LC): markedly induces TH; TH induction in the SN ([9]; substantia nigra, single i.p. injection, relative to mean value of control group): 155** %; TH induction in the VTA ([9]; ventral tegmental area, single i.p. injection, relative to mean value of control group): 125%
2 | CN1CC[C@H](C(=O)Nn2ccc3ccccc32)[C@H](c2ccc(F)cc2)C1 [Example 38, (3R,4S)-3-(4-Fluorophenyl)-N-(1H-indol-1-yl)-1-methylpiperidine-4-carboxamide] |  |  |  |  |  |  |  |  |  |  |  |  |  |  |  |  |  |  |  |  | melting point: 134 °C
3 | CN1CCN(CCN2CCC=C(C(=O)Nn3ccc4cc(Cl)ccc43)C2)CC1 [Example 47, N-(5-Chloroindol-1-yl)-1-[2-(4-methylpiperazin-1-yl)ethyl]-1,2,5,6-tetrahydropyridine-3-carboxamide] | 53 | 15 | 10 | < 10 | < 10 | < 10 | < 10 | 78 | 67 | 10 | 232** % | 138* % | 176** % | 179** % | 172** % | 169** % | 153** % | 140** % | 84* % | 88 | % metabolic stability predicted using hepatic microsomes, Rat [10]: 87%; % inhibition M ([8]; concentration 10^−7 M): 19%; amount of TH in LC section 11 [9, 11]: 127%; amount of TH, LC, total [9, 11]: 147** %
